The values below come from PubChem BioAssay AID1259407 (Chemical Carcinogenesis Research Information System (CCRIS), 2018).

Structures are written as SMILES. The source made the active and inactive calls. The rule behind the calls is not given here.

The series deals with CCRIS mutagenicity, Ames/micronucleus/aberration tests. Briefly: CCRIS mutagenicity studies.
Setting [1] is: Test System: AMES SALMONELLA TYPHIMURIUM, Strain/Indicator: TA98, Metabolic Activation: NONE, Method: STANDARD PLATE.

For `Nc1ccc([N+](=O)[O-])cc1O`, the mutagenic call was “active; positive; precipitation occurred at 100.5 and 149.9 ug/ml” (End Point: IN VITRO CHROMOSOMAL ABERRATIONS, Test System: CHO CELLS, Metabolic Activation: NONE); “active; positive; precipitation occurred at both doses” (End Point: IN VITRO CHROMOSOMAL ABERRATIONS, Test System: CHO CELLS, Metabolic Activation: RAT, LIVER, S-9, AROCLOR 1254); “active; positive” (Test System: AMES SALMONELLA TYPHIMURIUM, Strain/Indicator: TA98, Metabolic Activation: HAMSTER, LIVER, S-9, AROCLOR 1254 (10%), Method: PREINCUBATION); “active; positive” (Test System: AMES SALMONELLA TYPHIMURIUM, Strain/Indicator: TA98, Metabolic Activation: HAMSTER, LIVER, S-9, AROCLOR 1254, Method: PREINCUBATION); “active; positive” (Test System: AMES SALMONELLA TYPHIMURIUM, Strain/Indicator: TA98, Metabolic Activation: NONE, Method: FLUCTUATION (MICROTITER)); “active; positive” (Test System: AMES SALMONELLA TYPHIMURIUM, Strain/Indicator: TA98, Metabolic Activation: NONE, Method: PREINCUBATION). For the same compound, the mutagenic call is, setting by setting: under setting [1], “active; positive”; (Test System: AMES SALMONELLA TYPHIMURIUM, Strain/Indicator: TA98, Metabolic Activation: RAT, LIVER, S-9, AROCLOR 1254 (10%), Method: PREINCUBATION) “active; positive”; (Test System: AMES SALMONELLA TYPHIMURIUM, Strain/Indicator: TA98, Metabolic Activation: RAT, LIVER, S-9, AROCLOR 1254, Method: PREINCUBATION) “active; positive”; (Test System: AMES SALMONELLA TYPHIMURIUM, Strain/Indicator: TA98, Metabolic Activation: RAT, LIVER, S-9, AROCLOR 1254, Method: STANDARD PLATE) “inactive; negative”; (Test System: AMES SALMONELLA TYPHIMURIUM, Strain/Indicator: TA100, Metabolic Activation: HAMSTER, LIVER, S-9, AROCLOR 1254 (10%), Method: PREINCUBATION) “inactive; negative”; (Test System: AMES SALMONELLA TYPHIMURIUM, Strain/Indicator: TA100, Metabolic Activation: NONE, Method: PREINCUBATION) “inactive; negative”. For the same compound, the mutagenic call is “inactive; negative” (Test System: AMES SALMONELLA TYPHIMURIUM, Strain/Indicator: TA100, Metabolic Activation: RAT, LIVER, S-9, AROCLOR 1254 (10%), Method: PREINCUBATION); “inactive; negative” (Test System: AMES SALMONELLA TYPHIMURIUM, Strain/Indicator: TA1535, Metabolic Activation: HAMSTER, LIVER, S-9, AROCLOR 1254 (10%), Method: PREINCUBATION); “inactive; negative” (Test System: AMES SALMONELLA TYPHIMURIUM, Strain/Indicator: TA1535, Metabolic Activation: HAMSTER, LIVER, S-9, AROCLOR 1254, Method: PREINCUBATION); “inactive; negative” (Test System: AMES SALMONELLA TYPHIMURIUM, Strain/Indicator: TA1535, Metabolic Activation: NONE, Method: PREINCUBATION); “inactive; negative” (Test System: AMES SALMONELLA TYPHIMURIUM, Strain/Indicator: TA1535, Metabolic Activation: RAT, LIVER, S-9, AROCLOR 1254 (10%), Method: PREINCUBATION); “inactive; negative” (Test System: AMES SALMONELLA TYPHIMURIUM, Strain/Indicator: TA1535, Metabolic Activation: RAT, LIVER, S-9, AROCLOR 1254, Method: PREINCUBATION). The mutagenic call by setting is: (Test System: AMES SALMONELLA TYPHIMURIUM, Strain/Indicator: TA1537, Metabolic Activation: HAMSTER, LIVER, S-9, AROCLOR 1254 (10%), Method: PREINCUBATION) “active; positive”; (Test System: AMES SALMONELLA TYPHIMURIUM, Strain/Indicator: TA1537, Metabolic Activation: HAMSTER, LIVER, S-9, AROCLOR 1254, Method: PREINCUBATION) “active; positive”; (Test System: AMES SALMONELLA TYPHIMURIUM, Strain/Indicator: TA1537, Metabolic Activation: NONE, Method: FLUCTUATION (MICROTITER)) “inactive; negative”; (Test System: AMES SALMONELLA TYPHIMURIUM, Strain/Indicator: TA1537, Metabolic Activation: NONE, Method: PREINCUBATION) “active; positive”; (Test System: AMES SALMONELLA TYPHIMURIUM, Strain/Indicator: TA1537, Metabolic Activation: RAT, LIVER, S-9, AROCLOR 1254 (10%), Method: PREINCUBATION) “active; positive”; (Test System: AMES SALMONELLA TYPHIMURIUM, Strain/Indicator: TA1537, Metabolic Activation: RAT, LIVER, S-9, AROCLOR 1254, Method: PREINCUBATION) “active; positive”. For the same compound, the mutagenic call was “inactive; negative” (Test System: AMES SALMONELLA TYPHIMURIUM, Strain/Indicator: TA7001, Metabolic Activation: NONE, Method: FLUCTUATION (MICROTITER)); “inactive; negative” (Test System: AMES SALMONELLA TYPHIMURIUM, Strain/Indicator: TA7002, Metabolic Activation: NONE, Method: FLUCTUATION (MICROTITER)); “inactive; negative” (Test System: AMES SALMONELLA TYPHIMURIUM, Strain/Indicator: TA7003, Metabolic Activation: NONE, Method: FLUCTUATION (MICROTITER)); “inactive; negative” (Test System: AMES SALMONELLA TYPHIMURIUM, Strain/Indicator: TA7004, Metabolic Activation: NONE, Method: FLUCTUATION (MICROTITER)); “inactive; negative” (Test System: AMES SALMONELLA TYPHIMURIUM, Strain/Indicator: TA7005, Metabolic Activation: NONE, Method: FLUCTUATION (MICROTITER)); “inactive; negative” (Test System: AMES SALMONELLA TYPHIMURIUM, Strain/Indicator: TA7006, Metabolic Activation: NONE, Method: FLUCTUATION (MICROTITER)). In addition, the mutagenic call (Test System: MOUSE LYMPHOMA, Strain/Indicator: L5178Y (TK+/TK-), Metabolic Activation: NONE, Method: SUSPENSION/PLATE) was “active; positive”.

For the compound `C[C@H]1CCCC(=O)CCCCCc2cc(O)cc(O)c2C(=O)O1`, the mutagenic call is, setting by setting: under setting [1], “inactive; negative”; (Test System: AMES SALMONELLA TYPHIMURIUM, Strain/Indicator: TA98, Metabolic Activation: RAT, LIVER, S-9, Method: STANDARD PLATE) “inactive; negative”; (Test System: AMES SALMONELLA TYPHIMURIUM, Strain/Indicator: TA100, Metabolic Activation: NONE, Method: STANDARD PLATE) “inactive; negative”; (Test System: AMES SALMONELLA TYPHIMURIUM, Strain/Indicator: TA100, Metabolic Activation: RAT, LIVER, S-9, Method: STANDARD PLATE) “inactive; negative”; (Test System: AMES SALMONELLA TYPHIMURIUM, Strain/Indicator: TA1535, Metabolic Activation: NONE, Method: STANDARD PLATE) “inactive; negative”; (Test System: AMES SALMONELLA TYPHIMURIUM, Strain/Indicator: TA1535, Metabolic Activation: RAT, LIVER, S-9, Method: STANDARD PLATE) “inactive; negative; toxicity at 1000 ug/plate”. Also, the mutagenic call is “inactive; negative” (Test System: AMES SALMONELLA TYPHIMURIUM, Strain/Indicator: TA1537, Metabolic Activation: NONE, Method: STANDARD PLATE); “inactive; negative” (Test System: AMES SALMONELLA TYPHIMURIUM, Strain/Indicator: TA1537, Metabolic Activation: RAT, LIVER, S-9, Method: STANDARD PLATE); “inactive; negative” (Test System: AMES SALMONELLA TYPHIMURIUM, Strain/Indicator: TA1538, Metabolic Activation: NONE, Method: STANDARD PLATE); “inactive; negative” (Test System: AMES SALMONELLA TYPHIMURIUM, Strain/Indicator: TA1538, Metabolic Activation: RAT, LIVER, S-9, Method: STANDARD PLATE).
